In patent publication US12077503B2, “Substituted cyclic amides and their use as herbicides” (FMC CORPORATION, priority 2015, dated 2024):

Legend:
Assay type in all cases: in vivo
[1] = system: ducksalad (Heteranthera limosa); test: Test B flooded paddy test; settings: Heteranthera limosa, 250 g ai/ha, Flood; 0 to 100 scale where 0 is no effect and 100 is complete control; read-out: Ducksalad plant response rating
How it was run: (§1)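 Evaluation by eye, against controls, occurred 13–15 d post-treatment in a greenhouse, using a 0 (no effect) to 100 (complete control) scale. Application was into the paddy water, 3 cm deep over the soil, on 2-leaf plants.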

[2] = system: sedge, umbrella (small-flower umbrella sedge, Cyperus difformis); test: Test B flooded paddy test; settings: Cyperus difformis, 250 g ai/ha, Flood; 0 to 100 scale where 0 is no effect and 100 is complete control; read-out: Sedge, Umbrella plant response rating
How it was run: as §1

rice (Oryra sativa) = test: Test B flooded paddy test; settings: Oryza sativa, 250 g ai/ha, Flood; 0 to 100 scale where 0 is no effect and 100 is complete control; read-out: Rice plant response rating
How it was run: as §1

[3] = system: barnyardgrass (Echinochloa crus-galli); test: Test B flooded paddy test; settings: Echinochloa crus-galli, 250 g ai/ha, Flood; 0 to 100 scale where 0 is no effect and 100 is complete control; read-out: Barnyardgrass plant response rating
How it was run: as §1

Kochia (Kochia scoparia) [4] = test: Test A preemergence; settings: Bassia scoparia, pre-emergence, 240 h, 0 to 100 scale where 0 is no effect and 100 is complete control, read-out: Kochia plant response rating; for pest or weed control at 31 g/ha: 31 g ai/ha, Preemergence; for pest or weed control at 125 g/ha: 125 g ai/ha, preemergence, visual injury rating, approximately 10 d
How it was run: (§2)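 Compounds were formulated in a non-phytotoxic solvent mixture with surfactant and applied as a preemergence directed soil spray after seeding, or sprayed postemergence over plants 2 to 10 cm tall at the one- to two-leaf stage. Evaluation after about 10 d compared treated with untreated controls, using a scale from 0 (no effect) to 100 (complete control).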

[5] = system: ryegrass, Italian (Italian ryegrass, Lolium multiflorum); test: Test A preemergence; settings: Lolium multiflorum, pre-emergence, 240 h, 0 to 100 scale where 0 is no effect and 100 is complete control, read-out: Ryegrass, Italian plant response rating; for pest or weed control at 31 g/ha: 31 g ai/ha, Preemergence; for pest or weed control at 125 g/ha: 125 g ai/ha, preemergence, visual injury rating, approximately 10 d
How it was run: as §2

[6] = system: giant foxtail (Setaria faberii); test: Test A preemergence; settings: Setaria faberi, pre-emergence, 240 h, 0 to 100 scale where 0 is no effect and 100 is complete control, read-out: Foxtail, Giant plant response rating; for pest or weed control at 31 g/ha: 31 g ai/ha, Preemergence; for pest or weed control at 125 g/ha: 125 g ai/ha, preemergence, visual injury rating, approximately 10 d
How it was run: as §2

[7] = system: ragweed (common ragweed, Ambrosia elatior); test: Test A preemergence; settings: Ambrosia artemisiifolia, pre-emergence, 240 h, 0 to 100 scale where 0 is no effect and 100 is complete control, read-out: Ragweed plant response rating; for pest or weed control at 31 g/ha: 31 g ai/ha, Preemergence; for pest or weed control at 125 g/ha: 125 g ai/ha, preemergence, visual injury rating, approximately 10 d
How it was run: as §2

[8] = system: pigweed (Amaranthus retroflexus); test: Test A preemergence; settings: Amaranthus retroflexus, pre-emergence, 240 h, 0 to 100 scale where 0 is no effect and 100 is complete control, read-out: Pigweed plant response rating; for pest or weed control at 31 g/ha: 31 g ai/ha, Preemergence; for pest or weed control at 125 g/ha: 125 g ai/ha, preemergence, visual injury rating, approximately 10 d
[9] = system: barnyardgrass (Echinochloa crus-galli); test: Test A preemergence; settings: Echinochloa crus-galli, pre-emergence, 240 h, 0 to 100 scale where 0 is no effect and 100 is complete control, read-out: Barnyardgrass plant response rating; for pest or weed control at 31 g/ha: 31 g ai/ha, Preemergence; for pest or weed control at 125 g/ha: 125 g ai/ha, preemergence, visual injury rating, approximately 10 d
How it was run: as §2

Kochia (Kochia scoparia) [10] = test: Test A postemergence; settings: Bassia scoparia, post-emergence, 240 h, read-out: Kochia plant response rating (0 to 100 scale); for pest or weed control at 125 g/ha: 125 g ai/ha, postemergence, visual injury vs untreated controls after approx. 10 d, 0 = no effect, 100 = complete control; for pest or weed control at 31 g/ha: Postemergence, 31 g ai/ha, 0 is no effect, 100 is complete control
How it was run: as §2

[11] = system: ryegrass, Italian (Italian ryegrass, Lolium multiflorum); test: Test A postemergence; settings: Lolium multiflorum, post-emergence, 240 h, read-out: Ryegrass, Italian plant response rating (0 to 100 scale); for pest or weed control at 125 g/ha: 125 g ai/ha, postemergence, visual injury vs untreated controls after approx. 10 d, 0 = no effect, 100 = complete control; for pest or weed control at 31 g/ha: Postemergence, 31 g ai/ha, 0 is no effect, 100 is complete control
How it was run: as §2

[12] = system: giant foxtail (Setaria faberii); test: Test A postemergence; settings: Setaria faberi, post-emergence, 240 h, read-out: Foxtail, Giant plant response rating (0 to 100 scale); for pest or weed control at 125 g/ha: 125 g ai/ha, postemergence, visual injury vs untreated controls after approx. 10 d, 0 = no effect, 100 = complete control; for pest or weed control at 31 g/ha: Postemergence, 31 g ai/ha, 0 is no effect, 100 is complete control
How it was run: as §2

[13] = system: ragweed (common ragweed, Ambrosia elatior); test: Test A postemergence; settings: Ambrosia artemisiifolia, post-emergence, 240 h, read-out: Ragweed plant response rating (0 to 100 scale); for pest or weed control at 125 g/ha: 125 g ai/ha, postemergence, visual injury vs untreated controls after approx. 10 d, 0 = no effect, 100 = complete control; for pest or weed control at 31 g/ha: Postemergence, 31 g ai/ha, 0 is no effect, 100 is complete control
How it was run: as §2

[14] = system: pigweed (Amaranthus retroflexus); test: Test A postemergence; settings: Amaranthus retroflexus, post-emergence, 240 h, read-out: Pigweed plant response rating (0 to 100 scale); for pest or weed control at 125 g/ha: 125 g ai/ha, postemergence, visual injury vs untreated controls after approx. 10 d, 0 = no effect, 100 = complete control; for pest or weed control at 31 g/ha: Postemergence, 31 g ai/ha, 0 is no effect, 100 is complete control
How it was run: as §2

[15] = system: wheat (Triticum aestivum); test: Test A postemergence; settings: Triticum aestivum, post-emergence, 240 h, read-out: Wheat plant response rating (0 to 100 scale); for plant injury at 31 g/ha: Postemergence, 31 g ai/ha, 0 is no effect, 100 is complete control
How it was run: as §2

corn (Zea mays) = test: Test A postemergence; settings: Zea mays, post-emergence, 240 h, read-out: Corn plant response rating (0 to 100 scale); for plant injury at 125 g/ha: 125 g ai/ha, postemergence, visual injury vs untreated controls after approx. 10 d, 0 = no effect, 100 = complete control; for plant injury at 31 g/ha: Postemergence, 31 g ai/ha, 0 is no effect, 100 is complete control
How it was run: as §2

[16] = system: Galium (catchweed bedstraw, Galium aparine); test: Test A postemergence; settings: Galium, post-emergence, 240 h, read-out: Galium plant response rating (0 to 100 scale); for pest or weed control at 125 g/ha: 125 g ai/ha, postemergence, visual injury vs untreated controls after approx. 10 d, 0 = no effect, 100 = complete control; for pest or weed control at 31 g/ha: Postemergence, 31 g ai/ha, 0 is no effect, 100 is complete control
How it was run: as §2

[17] = system: barnyardgrass (Echinochloa crus-galli); test: Test A postemergence; settings: Echinochloa crus-galli, post-emergence, 240 h, read-out: Barnyardgrass plant response rating (0 to 100 scale); for pest or weed control at 125 g/ha: 125 g ai/ha, postemergence, visual injury vs untreated controls after approx. 10 d, 0 = no effect, 100 = complete control; for pest or weed control at 31 g/ha: Postemergence, 31 g ai/ha, 0 is no effect, 100 is complete control
How it was run: as §2

[18] = system: blackgrass (Alopecurus myosuroides); test: Test A postemergence; settings: Alopecurus myosuroides, post-emergence, 240 h, read-out: Blackgrass plant response rating (0 to 100 scale); for pest or weed control at 125 g/ha: 125 g ai/ha, postemergence, visual injury vs untreated controls after approx. 10 d, 0 = no effect, 100 = complete control; for pest or weed control at 31 g/ha: Postemergence, 31 g ai/ha, 0 is no effect, 100 is complete control
How it was run: as §2

Compound	pest or weed control at 250 g/ha [1] [%]	pest or weed control at 250 g/ha [2] [%]	pest or weed control at 250 g/ha (rice (Oryra sativa)) [%]	pest or weed control at 250 g/ha [3] [%]	pest or weed control at 31 g/ha (Kochia (Kochia scoparia) [4]) [%]	pest or weed control at 125 g/ha (Kochia (Kochia scoparia) [4]) [%]	pest or weed control at 31 g/ha [5] [%]	pest or weed control at 125 g/ha [5] [%]	pest or weed control at 31 g/ha [6] [%]	pest or weed control at 125 g/ha [6] [%]	pest or weed control at 31 g/ha [7] [%]	pest or weed control at 125 g/ha [7] [%]	pest or weed control at 31 g/ha [8] [%]	pest or weed control at 125 g/ha [8] [%]	pest or weed control at 31 g/ha [9] [%]	pest or weed control at 125 g/ha [9] [%]	pest or weed control at 125 g/ha (Kochia (Kochia scoparia) [10]) [%]	pest or weed control at 31 g/ha (Kochia (Kochia scoparia) [10]) [%]	pest or weed control at 125 g/ha [11] [%]	pest or weed control at 31 g/ha [11] [%]	other results
N#Cc1ccc([C@H]2CNC(=O)[C@@H]2C(=O)Nc2cccc(F)c2F)cc1F [Compound 1193]	90	0	30	75	0	0	0	0	0	80	0	0	0	0	40	90	0	0	0	0	pest or weed control at 125 g/ha [12]: 30%; pest or weed control at 31 g/ha [12]: 0%; pest or weed control at 125 g/ha [13]: 0%; pest or weed control at 31 g/ha [13]: 0%; pest or weed control at 125 g/ha [14]: 0%; pest or weed control at 31 g/ha [14]: 0%; plant injury at 125 g/ha ([15]; 125 g ai/ha, postemergence, visual injury vs untreated controls after approx. 10 d, 0 = no effect, 100 = complete control): 0%; plant injury at 31 g/ha [15]: 0%; plant injury at 125 g/ha (corn (Zea mays)): 0%; plant injury at 31 g/ha (corn (Zea mays)): 0%; pest or weed control at 125 g/ha [16]: 0%; pest or weed control at 31 g/ha [16]: 0%; pest or weed control at 125 g/ha [17]: 70%; pest or weed control at 31 g/ha [17]: 0%; pest or weed control at 125 g/ha [18]: 0%; pest or weed control at 31 g/ha [18]: 0%
O=C1NC[C@H](c2ccc(F)c(Oc3ccccc3)c2)[C@H]1C(=O)Nc1cccc(F)c1F [Compound 1258]	0	0	0	40	0	0	0	0	40	70	0	0	0	0	0	30	0	0	0	0	pest or weed control at 125 g/ha [12]: 60%; pest or weed control at 31 g/ha [12]: 30%; pest or weed control at 125 g/ha [13]: 0%; pest or weed control at 31 g/ha [13]: 0%; pest or weed control at 125 g/ha [14]: 30%; pest or weed control at 31 g/ha [14]: 0%; plant injury at 31 g/ha [15]: 0%; plant injury at 125 g/ha (corn (Zea mays)): 40%; plant injury at 31 g/ha (corn (Zea mays)): 0%; pest or weed control at 125 g/ha [16]: 80%; pest or weed control at 31 g/ha [16]: 70%; pest or weed control at 125 g/ha [17]: 70%; pest or weed control at 31 g/ha [17]: 30%; pest or weed control at 125 g/ha [18]: 0%; pest or weed control at 31 g/ha [18]: 0%
